Read-outs that look alike come from different tables or passages of the source.
Experiments:
Test in all cases: cell-based
Format in all cases: cell-based
hNav1.7 = hNav1.7 (Homo sapiens, UniProt Q15858); conditions: read-out: PX hNav1.7 Tonic IC50
hNav1.6 = hNav1.6 (Homo sapiens, UniProt Q9UQD0); conditions: Table 15; for Nav1.6/Nav1.7: ratio of PX tonic IC50 values; for IC50: read-out: PX hNav1.6 Tonic IC50
hNav1.4 = hNav1.4 (Homo sapiens, UniProt P35499); conditions: Table 12; for IC50: PatchXpress, tonic block, read-out: PX hNav1.4 Tonic IC50; for Nav1.4/Nav1.7: ratio of PX tonic IC50 values
hNav1.4, sequence (P35499 whole entry): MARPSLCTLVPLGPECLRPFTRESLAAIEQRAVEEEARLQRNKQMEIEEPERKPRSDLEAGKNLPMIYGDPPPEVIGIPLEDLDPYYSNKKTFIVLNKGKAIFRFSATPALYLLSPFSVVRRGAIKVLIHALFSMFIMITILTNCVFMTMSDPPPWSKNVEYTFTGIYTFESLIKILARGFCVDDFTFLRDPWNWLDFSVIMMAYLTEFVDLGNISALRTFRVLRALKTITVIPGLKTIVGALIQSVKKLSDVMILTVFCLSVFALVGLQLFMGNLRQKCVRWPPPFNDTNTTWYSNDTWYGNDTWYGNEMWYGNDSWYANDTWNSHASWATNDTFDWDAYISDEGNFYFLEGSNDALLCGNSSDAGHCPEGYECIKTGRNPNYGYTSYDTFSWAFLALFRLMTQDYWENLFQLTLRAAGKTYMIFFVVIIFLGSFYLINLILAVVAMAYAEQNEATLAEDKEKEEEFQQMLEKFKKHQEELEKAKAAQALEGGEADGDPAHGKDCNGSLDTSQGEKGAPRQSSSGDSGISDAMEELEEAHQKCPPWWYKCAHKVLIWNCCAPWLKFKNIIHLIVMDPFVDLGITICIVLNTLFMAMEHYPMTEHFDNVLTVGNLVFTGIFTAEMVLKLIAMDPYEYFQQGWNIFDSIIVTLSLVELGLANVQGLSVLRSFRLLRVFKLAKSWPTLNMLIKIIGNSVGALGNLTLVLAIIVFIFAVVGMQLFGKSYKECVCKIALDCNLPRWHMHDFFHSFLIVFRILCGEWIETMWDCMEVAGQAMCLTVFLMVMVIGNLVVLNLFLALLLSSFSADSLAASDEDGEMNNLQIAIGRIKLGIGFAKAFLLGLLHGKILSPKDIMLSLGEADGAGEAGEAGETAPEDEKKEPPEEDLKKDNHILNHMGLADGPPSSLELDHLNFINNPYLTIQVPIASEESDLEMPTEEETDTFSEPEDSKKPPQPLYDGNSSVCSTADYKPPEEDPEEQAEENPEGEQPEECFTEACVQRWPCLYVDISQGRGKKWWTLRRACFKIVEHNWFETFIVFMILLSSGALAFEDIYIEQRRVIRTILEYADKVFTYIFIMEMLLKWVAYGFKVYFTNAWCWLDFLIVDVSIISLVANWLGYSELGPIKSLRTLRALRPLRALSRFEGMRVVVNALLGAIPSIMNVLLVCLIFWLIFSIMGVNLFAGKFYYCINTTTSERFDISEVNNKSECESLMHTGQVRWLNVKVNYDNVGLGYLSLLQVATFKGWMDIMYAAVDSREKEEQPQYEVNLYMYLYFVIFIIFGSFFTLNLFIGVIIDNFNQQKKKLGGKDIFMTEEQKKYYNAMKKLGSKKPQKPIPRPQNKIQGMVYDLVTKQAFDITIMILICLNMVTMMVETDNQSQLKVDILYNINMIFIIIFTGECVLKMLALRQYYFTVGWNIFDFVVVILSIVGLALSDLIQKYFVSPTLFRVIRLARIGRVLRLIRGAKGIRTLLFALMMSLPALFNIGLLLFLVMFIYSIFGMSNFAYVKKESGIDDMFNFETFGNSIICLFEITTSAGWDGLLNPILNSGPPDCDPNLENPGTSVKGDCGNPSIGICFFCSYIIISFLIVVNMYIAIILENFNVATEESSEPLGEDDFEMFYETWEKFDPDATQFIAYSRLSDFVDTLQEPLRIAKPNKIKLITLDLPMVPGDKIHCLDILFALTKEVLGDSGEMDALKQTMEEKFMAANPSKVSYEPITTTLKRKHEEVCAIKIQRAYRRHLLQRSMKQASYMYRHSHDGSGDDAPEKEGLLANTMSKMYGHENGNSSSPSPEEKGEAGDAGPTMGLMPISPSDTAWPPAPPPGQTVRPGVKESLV

[1] = Table 12, PatchXpress, tonic block

hNav1.7, sequence (Q15858 whole entry): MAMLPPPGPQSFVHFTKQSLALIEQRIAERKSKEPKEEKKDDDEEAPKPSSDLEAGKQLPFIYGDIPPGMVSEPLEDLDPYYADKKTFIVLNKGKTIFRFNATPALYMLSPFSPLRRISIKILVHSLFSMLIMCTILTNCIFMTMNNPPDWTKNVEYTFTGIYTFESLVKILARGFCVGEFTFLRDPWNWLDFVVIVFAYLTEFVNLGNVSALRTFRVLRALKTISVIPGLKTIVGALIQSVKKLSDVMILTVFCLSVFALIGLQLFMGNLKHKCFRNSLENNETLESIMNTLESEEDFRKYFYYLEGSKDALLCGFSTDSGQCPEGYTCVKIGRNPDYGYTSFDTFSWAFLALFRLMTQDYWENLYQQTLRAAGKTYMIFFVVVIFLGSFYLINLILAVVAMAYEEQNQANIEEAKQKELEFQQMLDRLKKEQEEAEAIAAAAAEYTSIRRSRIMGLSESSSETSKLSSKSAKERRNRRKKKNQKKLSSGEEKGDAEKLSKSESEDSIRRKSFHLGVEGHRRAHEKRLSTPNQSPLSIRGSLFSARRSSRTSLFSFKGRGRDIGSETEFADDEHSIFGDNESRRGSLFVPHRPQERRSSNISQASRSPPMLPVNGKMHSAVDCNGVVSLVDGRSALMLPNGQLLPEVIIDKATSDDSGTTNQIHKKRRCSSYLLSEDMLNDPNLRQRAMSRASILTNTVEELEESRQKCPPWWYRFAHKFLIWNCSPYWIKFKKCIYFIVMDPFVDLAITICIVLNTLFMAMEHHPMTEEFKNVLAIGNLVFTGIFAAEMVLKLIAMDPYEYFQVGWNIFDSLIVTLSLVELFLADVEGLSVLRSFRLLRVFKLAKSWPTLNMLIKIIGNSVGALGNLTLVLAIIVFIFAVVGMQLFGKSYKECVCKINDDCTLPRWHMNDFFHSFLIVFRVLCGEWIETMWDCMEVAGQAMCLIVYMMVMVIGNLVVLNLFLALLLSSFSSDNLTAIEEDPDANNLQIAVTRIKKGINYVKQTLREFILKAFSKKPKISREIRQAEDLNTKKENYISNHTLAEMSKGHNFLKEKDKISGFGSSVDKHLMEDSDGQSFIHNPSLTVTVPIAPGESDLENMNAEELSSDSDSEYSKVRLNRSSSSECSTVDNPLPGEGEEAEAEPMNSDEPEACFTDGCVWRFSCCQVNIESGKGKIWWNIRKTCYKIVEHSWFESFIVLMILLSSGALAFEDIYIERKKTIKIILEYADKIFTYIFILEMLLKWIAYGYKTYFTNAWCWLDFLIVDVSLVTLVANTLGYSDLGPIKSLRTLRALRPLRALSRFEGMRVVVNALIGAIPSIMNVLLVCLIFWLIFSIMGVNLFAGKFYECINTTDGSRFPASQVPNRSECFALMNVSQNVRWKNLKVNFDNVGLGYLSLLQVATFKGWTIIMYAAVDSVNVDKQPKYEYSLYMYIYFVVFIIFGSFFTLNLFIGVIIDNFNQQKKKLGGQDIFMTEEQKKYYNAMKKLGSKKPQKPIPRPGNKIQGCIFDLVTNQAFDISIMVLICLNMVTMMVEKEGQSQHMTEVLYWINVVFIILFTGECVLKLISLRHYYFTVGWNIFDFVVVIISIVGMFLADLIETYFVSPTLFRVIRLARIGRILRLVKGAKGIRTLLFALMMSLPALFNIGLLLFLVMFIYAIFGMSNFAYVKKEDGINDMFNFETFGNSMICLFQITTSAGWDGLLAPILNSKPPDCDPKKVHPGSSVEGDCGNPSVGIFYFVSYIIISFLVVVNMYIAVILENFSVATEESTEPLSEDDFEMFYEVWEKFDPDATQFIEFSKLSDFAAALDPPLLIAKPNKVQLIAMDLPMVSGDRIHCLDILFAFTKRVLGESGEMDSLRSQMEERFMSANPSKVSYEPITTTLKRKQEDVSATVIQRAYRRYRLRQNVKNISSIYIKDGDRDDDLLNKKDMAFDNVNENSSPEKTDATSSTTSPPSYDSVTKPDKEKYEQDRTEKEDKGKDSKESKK

Row | Compound | IC50 (hNav1.7; [1]) | IC50 (hNav1.7; Table 15) | Nav1.6/Nav1.7 (hNav1.6) | IC50 (hNav1.4) | Nav1.4/Nav1.7 (hNav1.4) | IC50 (hNav1.6)
1 | C#CC[C@H](N)C(=O)N[C@@H](Cc1ccc(O)cc1)C(=O)N[C@H]1CSSC[C@@H]2NC(=O)[C@@H]3CSSC[C@@H](C(=O)N[C@@H](CCCNC(=N)N)C(=O)N[C@@H](CCCCN)C(=O)N[C@@H](CCC(=O)O)C(=O)N[C@H](C(N)=O)[C@@H](C)CC)NC(=O)[C@H](Cc4c[nH]c5ccccc45)NC(=O)[C@H](CC(C)C)NC(=O)[C@H](CCCCN)NC(=O)[C@H](CSSC[C@H](NC(=O)[C@H]([C@@H](C)O)NC(=O)[C@H](Cc4c[nH]c5ccccc45)NC(=O)[C@H](CCCC)NC(=O)[C@H](CCc4ccccc4)NC(=O)[C@H](CCCCN)NC(=O)[C@H](CCC(N)=O)NC1=O)C(=O)N[C@@H](CC(=O)O)C(=O)N[C@@H](CO)C(=O)N[C@@H](CCCCN)C(=O)N[C@@H](CCCNC(=N)N)C(=O)N[C@@H](C)C(=O)N3)NC(=O)[C@H](CCCNC(=N)N)NC(=O)[C@H](CC(C)C)NC(=O)CNC(=O)[C@H](CCC(=O)O)NC2=O [compound 844] | 0.599 nM | 0.599 nM | 1666 | 258 nM | 431 | 
2 | C#CC[C@H](N)C(=O)N[C@@H](Cc1ccc(O)cc1)C(=O)N[C@H]1CSSC[C@@H]2NC(=O)[C@@H]3CSSC[C@@H](C(=O)N[C@@H](CCCNC(=N)N)C(=O)N[C@@H](CCCCN)C(=O)N[C@@H](CCC(=O)O)C(=O)N[C@H](C(N)=O)[C@@H](C)CC)NC(=O)[C@H](Cc4c[nH]c5ccccc45)NC(=O)[C@H](CC(C)C)NC(=O)[C@H](CCCCN)NC(=O)[C@H](CSSC[C@H](NC(=O)[C@H]([C@@H](C)O)NC(=O)[C@H](Cc4c[nH]c5ccccc45)NC(=O)[C@H](CCCC)NC(=O)[C@H](Cc4c[nH]c5ccccc45)NC(=O)[C@H](CCCCN)NC(=O)[C@H](CCC(N)=O)NC1=O)C(=O)N[C@@H](CC(=O)O)C(=O)N[C@@H](CO)C(=O)N[C@@H](CCCCN)C(=O)N[C@@H](CCCNC(=N)N)C(=O)N[C@@H](C)C(=O)N3)NC(=O)[C@H](CCCNC(=N)N)NC(=O)[C@H](CC(C)C)NC(=O)CNC(=O)[C@H](CCCCN)NC2=O [compound 718] | 1.42 nM |  | 104 | 33.9 nM | 24 | 148 nM
3 | C#CC[C@H](NC(=O)[C@@H](N)CCC(=O)O)C(=O)N[C@H]1CSSC[C@@H]2NC(=O)[C@@H]3CSSC[C@@H](C(=O)N[C@@H](CCCNC(=N)N)C(=O)N[C@@H](CCCCN)C(=O)N[C@@H](CCC(=O)O)C(=O)N[C@H](C(N)=O)[C@@H](C)CC)NC(=O)[C@H](Cc4c[nH]c5ccccc45)NC(=O)[C@H](CC(C)C)NC(=O)[C@H](CCCCN)NC(=O)[C@H](CSSC[C@H](NC(=O)[C@H]([C@@H](C)O)NC(=O)[C@H](Cc4c[nH]c5ccccc45)NC(=O)[C@H](CCCC)NC(=O)[C@H](Cc4c[nH]c5ccccc45)NC(=O)[C@H](CCCCN)NC(=O)[C@H](CCC(N)=O)NC1=O)C(=O)N[C@@H](CC(=O)O)C(=O)N[C@@H](CCC(=O)O)C(=O)N[C@@H](CCC(=O)O)C(=O)N[C@@H](CCCNC(=N)N)C(=O)N[C@@H](C)C(=O)N3)NC(=O)[C@H](CCCNC(=N)N)NC(=O)[C@H](CC(C)C)NC(=O)CNC(=O)[C@H](CCC(=O)O)NC2=O [compound 748] | 6.66 nM |  | 410 | 2150 nM | 323 | 2730 nM
4 | C#CC[C@H](N)C(=O)N[C@@H](Cc1ccc(O)cc1)C(=O)N[C@H]1CSSC[C@@H]2NC(=O)[C@@H]3CSSC[C@@H](C(=O)N[C@@H](CCCNC(=N)N)C(=O)N[C@@H](CCCCN)C(=O)N[C@@H](CCC(=O)O)C(=O)N[C@H](C(N)=O)[C@@H](C)CC)NC(=O)[C@H](Cc4c[nH]c5ccccc45)NC(=O)[C@H](CC(C)C)NC(=O)[C@H](CCCCN)NC(=O)[C@H](CSSC[C@H](NC(=O)[C@H]([C@@H](C)O)NC(=O)[C@H](Cc4c[nH]c5ccccc45)NC(=O)[C@H](CCCC)NC(=O)[C@H](Cc4c[nH]c5ccccc45)NC(=O)[C@H](CCCCN)NC(=O)[C@H](CCC(N)=O)NC1=O)C(=O)N[C@@H](CC(=O)O)C(=O)N[C@@H](CO)C(=O)N[C@@H](CCCCN)C(=O)N[C@@H](CCCNC(=N)N)C(=O)N[C@@H](C)C(=O)N3)NC(=O)[C@H](CCCCN)NC(=O)[C@H](CC(C)C)NC(=O)CNC(=O)[C@H](CCC(=O)O)NC2=O [compound 721] | 0.519 nM |  | 471 | 185 nM | 357 | 245 nM
5 | C#CC[C@H](NC(=O)[C@@H](N)CCC(=O)O)C(=O)N[C@H]1CSSC[C@@H]2NC(=O)[C@@H]3CSSC[C@@H](C(=O)N[C@@H](CCCNC(=N)N)C(=O)N[C@@H](CCCCN)C(=O)N[C@@H](CCC(=O)O)C(=O)N[C@H](C(N)=O)[C@@H](C)CC)NC(=O)[C@H](Cc4c[nH]c5ccccc45)NC(=O)[C@H](CC(C)C)NC(=O)[C@H](CCCCN)NC(=O)[C@H](CSSC[C@H](NC(=O)[C@H]([C@@H](C)O)NC(=O)[C@H](Cc4c[nH]c5ccccc45)NC(=O)[C@H](CCCC)NC(=O)[C@H](Cc4c[nH]c5ccccc45)NC(=O)[C@H](CCCCN)NC(=O)[C@H](CCC(N)=O)NC1=O)C(=O)N[C@@H](CC(=O)O)C(=O)N[C@@H](CO)C(=O)N[C@@H](CCCCN)C(=O)N[C@@H](CCCNC(=N)N)C(=O)N[C@@H](CCC(=O)O)C(=O)N3)NC(=O)[C@H](CCCNC(=N)N)NC(=O)[C@H](CC(C)C)NC(=O)CNC(=O)[C@H](CCC(=O)O)NC2=O [compound 738] | 0.563 nM | 0.525 nM | 1071 | 246 nM | 437 | 563 nM
6 | C#CC[C@H](NC(=O)[C@@H](N)CCC(=O)O)C(=O)N[C@H]1CSSC[C@@H]2NC(=O)[C@@H]3CSSC[C@@H](C(=O)N[C@@H](CCCNC(=N)N)C(=O)N[C@@H](CCCCN)C(=O)N[C@@H](CCC(=O)O)C(=O)N[C@H](C(N)=O)[C@@H](C)CC)NC(=O)[C@H](Cc4c[nH]c5ccccc45)NC(=O)[C@H](CC(C)C)NC(=O)[C@H](CCCCN)NC(=O)[C@H](CSSC[C@H](NC(=O)[C@H]([C@@H](C)O)NC(=O)[C@H](Cc4c[nH]c5ccccc45)NC(=O)[C@H](CCCC)NC(=O)[C@H](Cc4c[nH]c5ccccc45)NC(=O)[C@H](CCCCN)NC(=O)[C@H](CCC(N)=O)NC1=O)C(=O)N[C@@H](CC(=O)O)C(=O)N[C@@H](CCC(=O)O)C(=O)N[C@@H](CCCCN)C(=O)N[C@@H](CCCNC(=N)N)C(=O)N[C@@H](CCC(=O)O)C(=O)N3)NC(=O)[C@H](CCCNC(=N)N)NC(=O)[C@H](CC(C)C)NC(=O)CNC(=O)[C@H](CCC(=O)O)NC2=O [compound 750] | 2.91 nM |  | >3442 | 1190 nM | 411 | > 10000 nM
7 | C#CC[C@@H]1NC(=O)[C@@H]2CSSC[C@H](NC(=O)[C@H](Cc3ccc(O)cc3)NC(=O)[C@@H](N)CC#N)C(=O)N[C@@H](CCC(N)=O)C(=O)N[C@@H](CCCCN)C(=O)N[C@@H](Cc3c[nH]c4ccccc34)C(=O)N[C@@H](CCCC)C(=O)N[C@@H](Cc3c[nH]c4ccccc34)C(=O)N[C@@H]([C@@H](C)O)C(=O)N[C@H]3CSSC[C@H](NC(=O)[C@H](CCCNC(=N)N)NC(=O)[C@H](CC(C)C)NC(=O)CNC1=O)C(=O)N[C@@H](CCCCN)C(=O)N[C@@H](CC(C)C)C(=O)N[C@@H](Cc1c[nH]c4ccccc14)C(=O)N[C@H](C(=O)N[C@@H](CCCNC(=N)N)C(=O)N[C@@H](CCCCN)C(=O)N[C@@H](CCC(=O)O)C(=O)N[C@H](C(N)=O)[C@@H](C)CC)CSSC[C@H](NC(=O)[C@H](CCC(=O)O)NC(=O)[C@H](CCCNC(=N)N)NC(=O)[C@H](CCCCN)NC(=O)[C@H](CO)NC(=O)[C@H](CC(=O)O)NC3=O)C(=O)N2 [compound 733] | 1.19 nM |  | 147 | 130 nM | 109 | 175 nM
8 | C#CC[C@H](N)C(=O)N[C@@H](Cc1ccc(O)cc1)C(=O)N[C@H]1CSSC[C@@H]2NC(=O)[C@@H]3CSSC[C@@H](C(=O)N[C@@H](CCCNC(=N)N)C(=O)N[C@@H](CCCCN)C(=O)N[C@@H](CCC(=O)O)C(=O)N[C@H](C(N)=O)[C@@H](C)CC)NC(=O)[C@H](Cc4c[nH]c5ccccc45)NC(=O)[C@H](CC(C)C)NC(=O)[C@H](CCCCN)NC(=O)[C@H](CSSC[C@H](NC(=O)[C@H]([C@@H](C)O)NC(=O)[C@H](Cc4c[nH]c5ccccc45)NC(=O)[C@H](CCCC)NC(=O)[C@H](Cc4c[nH]c5ccccc45)NC(=O)[C@H](CCCCN)NC(=O)[C@H](CCC(N)=O)NC1=O)C(=O)N[C@@H](CC(=O)O)C(=O)N[C@@H](CCC(=O)O)C(=O)N[C@@H](CCC(=O)O)C(=O)N[C@@H](CCCNC(=N)N)C(=O)N[C@@H](C)C(=O)N3)NC(=O)[C@H](CCCNC(=N)N)NC(=O)[C@H](CC(C)C)NC(=O)CNC(=O)[C@H](CCC(=O)O)NC2=O [compound 744] | 3.8 nM |  | 217 | 1420 nM | 374 | 825 nM
9 | C#CC[C@H](N)C(=O)N[C@@H](Cc1ccc(O)cc1)C(=O)N[C@H]1CSSC[C@@H]2NC(=O)[C@@H]3CSSC[C@@H](C(=O)N[C@@H](CCCNC(=N)N)C(=O)N[C@@H](CCCCN)C(=O)N[C@@H](CC(=O)O)C(=O)N[C@H](C(N)=O)[C@@H](C)CC)NC(=O)[C@H](Cc4c[nH]c5ccccc45)NC(=O)[C@H](CC(C)C)NC(=O)[C@H](CCCCN)NC(=O)[C@H](CSSC[C@H](NC(=O)[C@H]([C@@H](C)O)NC(=O)[C@H](Cc4c[nH]c5ccccc45)NC(=O)[C@H](CCCC)NC(=O)[C@H](Cc4c[nH]c5ccccc45)NC(=O)[C@H](CCCCN)NC(=O)[C@H](CCC(N)=O)NC1=O)C(=O)N[C@@H](CC(=O)O)C(=O)N[C@@H](CO)C(=O)N[C@@H](CCCCN)C(=O)N[C@@H](CCCNC(=N)N)C(=O)N[C@@H](C)C(=O)N3)NC(=O)[C@H](CCCNC(=N)N)NC(=O)[C@H](CC(C)C)NC(=O)CNC(=O)[C@H](CCC(=O)O)NC2=O [compound 723] | 5.98 nM |  | 270 | 78.4 nM | 13 | 1620 nM

From patent US10344060B2 (priority 2013, dated 2019)
